Consider 44 molecules from ChEMBL document CHEMBL1681632, “2-(4-carbonylphenyl)benzoxazole inhibitors of CETP: scaffold design and advancement in HDLc-raising efficacy” (Bioorg Med Chem Lett, 2011).

In assay [1] the target is T1, Cholesteryl ester transfer protein (Homo sapiens, UniProt P11597).
T1 sequence (P11597 whole entry): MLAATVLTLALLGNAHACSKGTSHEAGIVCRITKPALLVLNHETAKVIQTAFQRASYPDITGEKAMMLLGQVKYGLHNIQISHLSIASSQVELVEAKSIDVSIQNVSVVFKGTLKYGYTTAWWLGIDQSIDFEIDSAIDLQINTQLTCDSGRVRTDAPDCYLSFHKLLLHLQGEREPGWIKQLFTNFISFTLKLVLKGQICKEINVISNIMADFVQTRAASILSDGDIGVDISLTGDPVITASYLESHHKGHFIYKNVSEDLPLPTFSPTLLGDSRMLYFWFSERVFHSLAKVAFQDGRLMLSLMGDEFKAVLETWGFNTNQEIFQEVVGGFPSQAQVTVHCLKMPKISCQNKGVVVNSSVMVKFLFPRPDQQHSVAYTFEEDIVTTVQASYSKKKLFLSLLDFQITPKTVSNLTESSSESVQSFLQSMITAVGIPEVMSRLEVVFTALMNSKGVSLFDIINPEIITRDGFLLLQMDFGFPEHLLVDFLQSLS
Nature of the assay: Inhibition of CETP.

A further assay concerns Mus musculus. Nature of the assay: Antiatherogenic activity in transgenic mouse PD model assessed as rise in HDL-cholesterol level at 10 mg/kg. Format: functional.

Structures are written as SMILES.

Take `Cc1cc(C#N)cc2nc(-c3ccc(CCCN4CCN(c5ccc(C(F)(F)F)cc5)CC4)cc3)oc12`: 975 nM corresponded to half-maximal inhibition in assay [1] (IC50).
For the molecule `CC(C)c1cc(C#N)cc2nc(-c3ccc(C(=O)NCC4CCN(c5nccc(C(F)(F)F)n5)CC4)cc3)oc12`, the IC50 in assay [1] turned out to be 22 nM. Besides, the Activity in the assay with Mus musculus is 7 mg/dL.
`N#Cc1cc(C(F)(F)F)c2oc(-c3ccc(C(=O)NCC4CCN(c5ccc(C(F)(F)F)cn5)CC4)cc3)nc2c1` displayed a half-maximal inhibitory concentration (IC50) in assay [1] of 3190 nM.
In turn, `CC(C)COc1ccccc1-c1ccc(N2CCC(CNC(=O)c3ccc(-c4nc5cc(C#N)cc(C(C)C)c5o4)cc3)CC2)nc1` displayed an IC50 in assay [1] of 31 nM.
With `Cc1cc(C#N)cc2nc(-c3ccc(NCC(O)CN4CCN(c5ccc(C(F)(F)F)cc5)CC4)cc3)oc12` (stereo not given), the midpoint of inhibition in assay [1], the IC50, lay at 18800 nM.
Molecule `Cc1cc(C#N)cc2nc(-c3ccc(C(O)CCN4CCN(c5ccc(C(F)(F)F)cc5)CC4)cc3)oc12` (stereo not given) showed a half-inhibitory concentration (IC50) in assay [1] of 2250 nM.
`Cc1cc(C#N)cc2nc(-c3ccc(C(=O)N(C)CC4CCN(c5ccc(C(F)(F)F)cc5)CC4)cc3)oc12`: half-maximal inhibition in assay [1] (IC50) required 2610 nM.
Regarding `CC(C)c1cc(C#N)cc2nc(-c3ccc(C(=O)NCC4CCN(c5ccc(-c6cc(C(F)(F)F)ccc6OCc6ccccc6)cn5)CC4)cc3)oc12`, half-maximal inhibition in assay [1] (IC50) required 413 nM.
Take `C=C(C)c1cc(C#N)cc2nc(-c3ccc(C(=O)NCC4CCN(c5ccc(C(F)(F)F)cn5)CC4)cc3)oc12`: in assay [1], the IC50 was found to be 131 nM.
`Cc1cc(C#N)cc2nc(-c3ccc(C(=O)CCN4CCN(c5ccc(C(F)(F)F)cc5)CC4)cc3)oc12`: it took 2050 nM to reach half-maximal inhibition in assay [1] (IC50).
Turning to `Cc1cc(C#N)cc2nc(-c3ccc(CC(=O)CN4CCN(c5ccc(C(F)(F)F)cc5)CC4)cc3)oc12`, in assay [1], inhibition was half-maximal at 5740 nM (IC50).
`CC(C)c1cc(C#N)cc2nc(-c3ccc(C(=O)NCC4CCN(c5ccc(-c6ccccc6)cn5)CC4)cc3)oc12` came in with an IC50 in assay [1] of 43 nM. In addition, in the assay with Mus musculus, the Activity was 22 mg/dL.
In turn, `Cc1cc(C#N)cc2nc(-c3ccc(C#CCN4CCN(c5ccc(C(F)(F)F)cc5)CC4)cc3)oc12` registered an IC50 in assay [1] of 2170 nM.
In assay [1], `COC(Cc1ccc(-c2nc3cc(C#N)cc(C)c3o2)cc1)CN1CCN(c2ccc(C(F)(F)F)cc2)CC1` (stereo not given) registered an IC50 of 8940 nM.
The molecule `COc1cccc(Cl)c1-c1ccc(N2CCC(CNC(=O)c3ccc(-c4nc5cc(C#N)cc(C(C)C)c5o4)cc3)CC2)nc1` returned a concentration for half-maximal inhibition (IC50) in assay [1] of 47 nM.
Regarding `CC(C)Oc1ccccc1-c1ccc(N2CCC(CNC(=O)c3ccc(-c4nc5cc(C#N)cc(C(C)C)c5o4)cc3)CC2)nc1`, in assay [1], 29 nM corresponded to half-maximal inhibition (IC50).
Still for that read-out and setting: the figure for `Cc1cc(C#N)cc2nc(-c3ccc(CC(O)CN4CCN(c5ccc(C(F)(F)F)cc5)CC4)cc3)oc12` (stereo not given) is 874 nM; for `CC(C)c1ccccc1-c1ccc(N2CCC(CNC(=O)c3ccc(-c4nc5cc(C#N)cc(C(C)C)c5o4)cc3)CC2)nc1` it is 19 nM; for `COC(=O)c1cccc(N2CCC(CNC(=O)c3ccc(-c4nc5cc(C#N)cc(C(C)C)c5o4)cc3)CC2)n1` it is 306 nM.
In assay [1], `Cc1cc(C#N)cc2nc(-c3ccc(OCCN4CCN(c5ccc(C(F)(F)F)cc5)CC4)cc3)oc12` came in with an IC50 of 4550 nM.
In the case of `CC(C)c1cc(C#N)cc2nc(-c3ccc(C(=O)NCC4CCN(c5cccc(C(=O)O)n5)CC4)cc3)oc12`, in assay [1], the IC50 was > 10000 nM.
The molecule `CC(C)c1cc(C#N)cc2nc(-c3ccc(C(=O)NCC4CCN(c5ccc(C(F)(F)F)cn5)CC4)cc3)oc12` yielded an IC50 in assay [1] of 40 nM. Moreover, in the assay on Mus musculus, the Activity is 16 mg/dL.
Molecule `COc1cc(F)c(C(C)C)cc1-c1ccc(N2CCC(CNC(=O)c3ccc(-c4nc5cc(C#N)cc(C(C)C)c5o4)cc3)CC2)nc1` showed an IC50 in assay [1] of 24 nM.
On the same count and under the same terms, the figure for `CC(C)c1cc(C#N)cc2nc(-c3ccc(C(=O)NCC4CCN(c5cccc(C(F)(F)F)n5)CC4)cc3)oc12` is 37 nM; for `COC(=O)c1ccc(N2CCC(CNC(=O)c3ccc(-c4nc5cc(C#N)cc(C(C)C)c5o4)cc3)CC2)nc1` it is 114 nM; for `Cc1cc(C#N)cc2nc(-c3ccc(C(=O)NCCC4CCN(c5ccc(C(F)(F)F)cc5)CC4)cc3)oc12` it is 11600 nM.
On to `N#Cc1cc(C2CC2)c2oc(-c3ccc(C(=O)NCC4CCN(c5ccc(C(F)(F)F)cn5)CC4)cc3)nc2c1`, for which, in assay [1], the IC50 was found to be 243 nM.
In turn, `CC(C)Oc1ccc(C(F)(F)F)cc1-c1ccc(N2CCC(CNC(=O)c3ccc(-c4nc5cc(C#N)cc(C(C)C)c5o4)cc3)CC2)nc1` yielded an IC50 in assay [1] of 28 nM.
On to `Cc1cc(C#N)cc2nc(-c3ccc(C(=O)NCC4CCN(c5ccc(C(F)(F)F)cc5)CC4)cc3)oc12`, for which the half-inhibitory concentration (IC50) in assay [1] was 300 nM.
With `CC(C)c1cc(C#N)cc2nc(-c3ccc(C(=O)NCC4CCN(c5ccc([N+](=O)[O-])cn5)CC4)cc3)oc12`, the IC50 in assay [1] is > 10000 nM.
With `Cc1cc(C#N)cc2nc(-c3ccc(N4CCC(N5CCN(c6ccc(C(F)(F)F)cc6)CC5)C4=O)cc3)oc12` (stereo not given), half-maximal inhibition in assay [1] (IC50) was put at 2740 nM.
Consider `Cc1cc(C#N)cc2nc(-c3ccc(NC(=O)CN4CCN(c5ccc(C(F)(F)F)cc5)CC4)cc3)oc12`, for which, in the assay on Mus musculus, the Activity is 24 mg/dL.
As to `CC(C)Oc1ccc(F)cc1-c1ccc(N2CCC(CNC(=O)c3ccc(-c4nc5cc(C#N)cc(C(C)C)c5o4)cc3)CC2)nc1`, the IC50 in assay [1] is 13 nM. In addition, in the assay with Mus musculus, the Activity came out at 24 mg/dL.
In turn, `Cc1ccc(-c2ccc(N3CCC(CNC(=O)c4ccc(-c5nc6cc(C#N)cc(C(C)C)c6o5)cc4)CC3)nc2)cc1` displayed an IC50 in assay [1] of 48 nM.
Regarding `Cc1cc(C#N)cc2nc(-c3ccc(NC(=O)CN4CCN(c5ccc(C(F)(F)F)cn5)CC4)cc3)oc12`, half-maximal inhibition in assay [1] (IC50) was put at 15 nM. Also, in the assay on Mus musculus, the Activity stood at 21 mg/dL.
Take `CC(C)c1cc(C#N)cc2nc(-c3ccc(C(=O)NCC4CCN(c5ccccn5)CC4)cc3)oc12`: the IC50 in assay [1] amounted to 114 nM.
Consider `Cc1ccc(OC(C)C)c(-c2ccc(N3CCC(CNC(=O)c4ccc(-c5nc6cc(C#N)cc(C(C)C)c6o5)cc4)CC3)nc2)c1`, for which 22 nM corresponded to half-maximal inhibition in assay [1] (IC50). For the same molecule, the Activity in the assay on Mus musculus was determined as 28 mg/dL.
In assay [1], `CC(C)(C)c1cc(C#N)cc2nc(-c3ccc(C(=O)NCC4CCN(c5ccc(C(F)(F)F)cn5)CC4)cc3)oc12` displayed an IC50 of 198 nM.
On the same count and under the same terms, under `Cc1cc(C#N)cc2nc(-c3ccc(C(=O)N4CCN(c5ccc(C(F)(F)F)cc5)CC4)cc3)oc12` stands 4030 nM; under `Cc1cccc(-c2ccc(N3CCC(CNC(=O)c4ccc(-c5nc6cc(C#N)cc(C(C)C)c6o5)cc4)CC3)nc2)c1`, 39 nM; under `CC(C)c1cc(C#N)cc2nc(-c3ccc(C(=O)NCC4CCN(c5cc(C(F)(F)F)ccn5)CC4)cc3)oc12`, 61 nM.
`C=C(C)c1ccc(N2CCC(CNC(=O)c3ccc(-c4nc5cc(C#N)cc(C(C)C)c5o4)cc3)CC2)nc1` had an IC50 in assay [1] of 229 nM.
On the same count and under the same terms, under `CC(C)c1cc(C#N)cc2nc(-c3ccc(C(=O)NCC4CCN(c5ccc(Br)cn5)CC4)cc3)oc12` stands 223 nM; under `COc1cccc(N2CCC(CNC(=O)c3ccc(-c4nc5cc(C#N)cc(C(C)C)c5o4)cc3)CC2)n1`, 110 nM.

What is called IC50 is the concentration needed to halve the response being measured. Low readings indicate greater potency, high ones weaker potency.
